The series is described as follows: Compound was evaluated for half life at 37 degree Centigrade.

The record followed here is ChEMBL document CHEMBL1121444, “Biological significance and therapeutic potential of prostacyclin” (J Med Chem, 1980).

As to `CCCCC[C@H](O)/C=C/[C@@H]1[C@H]2C/C(=C/CCCC(=O)O)O[C@H]2C[C@H]1O` [EPOPROSTENOL], the half-life – broadly, the time needed for the level to fall by half in the phase considered – worked out at 3 min.

`CCCCC[C@H](O)/C=C/C1OC2CC(O2)[C@@H]1C/C=C\CCCC(=O)O` (some centres not stated) showed a half-life of 0.5 min.
